Measured values taken from patent publication US12350259B2, “Methods of treating migraine” (Allergan Pharmaceuticals International Limited, priority 2021, dated 2025).
Where “and” joins values, the source holds several entries; their conditions need not be identical. Identical values can stand only once. Like-named read-outs stand apart in the source and are kept apart here. Marks after values point to notes of the source that are not given here.

Assays:
[1] = target: NTCP (Homo sapiens, UniProt Q14973); test: Transporter inhibition; type: in vitro ADME; settings: clinically relevant concentrations
Chain of NTCP (Q14973 whole entry): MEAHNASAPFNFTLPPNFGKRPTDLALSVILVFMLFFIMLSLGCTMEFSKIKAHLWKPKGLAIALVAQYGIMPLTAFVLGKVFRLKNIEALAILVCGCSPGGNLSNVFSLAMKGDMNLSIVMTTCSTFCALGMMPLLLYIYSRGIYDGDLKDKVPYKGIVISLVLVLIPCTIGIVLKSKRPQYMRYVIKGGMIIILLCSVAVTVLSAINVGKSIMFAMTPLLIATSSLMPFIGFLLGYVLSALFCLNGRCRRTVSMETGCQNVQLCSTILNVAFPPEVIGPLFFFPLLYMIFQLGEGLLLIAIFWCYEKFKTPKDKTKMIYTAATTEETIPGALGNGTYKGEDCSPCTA

[2] = Atogepant-topiramate interaction study: safety and tolerability; type: in vivo, human
[3] = Food effect study: safety and tolerability; type: in vivo, human; settings: fed and fasted
Protocol: Plasma samples were collected pre-dose and at predetermined time intervals up to 48 hours after dosing. Atogepant plasma concentrations were determined using a validated LC-MS/MS assay and the pharmacokinetic (PK) parameters were calculated using WinNonlin. A linear mixed-effects model with sequence, study intervention, and period as fixed effects, and participant nested within sequence as a random effect was used to compare the natural logarithm transformed values of atogepant PK parameters AUC0-t, AUC0-inf, and Cmax. Safety was monitored via ECGs, vital signs, clinical labs, and adverse events.

[4] = Atogepant-rifampin drug interaction study: atogepant plasma PK; type: in vivo, human; settings: for Tmax: read-out: Tmax (median); for Vd/F: read-out: Vz/F
Protocol: The study consisted of a Screening Visit, two study periods, an end-of-treatment (EOT) visit, and a follow-up visit. […] [table] […] Relative to the time that atogepant was administered, blood samples for atogepant plasma PK were to be collected at the following times: • Days 1 and 12: 0 hour (predose) and at 0.5, 1, 1.5, 2, 3, 4, 6, 8, 12, 16, 24, 36, and 48 hours post dose. • Day 7: 0 hour (predose) and at 0.5, 1, 1.5, 2, 3, 4, 6, 8, 12, 16, and 24 hours postdose

[5] = Safety in 12-week placebo-controlled Studies 1 and 2; type: in vivo, human
Protocol: The safety of atogepant was evaluated in 1958 patients with migraine who received at least one dose of atogepant. Of these, 839 patients were exposed to atogepant once daily for at least 6 months, and 487 patients were exposed for 12 months. In the 12-week, placebo-controlled clinical studies (Study 1 and Study 2, discussed above in Example 7), 314 patients received at least one dose of atogepant 10 mg once daily, 411 patients received at least one dose of atogepant 30 mg once daily, 417 patients received at least one dose of atogepant 60 mg once daily, and 408 patients received placebo. Approximately 88% were female, 80% were White, 17% were Black, and 12% were of Hispanic or Latino ethnicity. The mean age at study entry was 41 years (range 18 to 74 years).

[6] = target: MRP4 (Homo sapiens, UniProt O15439); test: Transporter inhibition; type: in vitro ADME; settings: clinically relevant concentrations
Chain of MRP4 (O15439 whole entry): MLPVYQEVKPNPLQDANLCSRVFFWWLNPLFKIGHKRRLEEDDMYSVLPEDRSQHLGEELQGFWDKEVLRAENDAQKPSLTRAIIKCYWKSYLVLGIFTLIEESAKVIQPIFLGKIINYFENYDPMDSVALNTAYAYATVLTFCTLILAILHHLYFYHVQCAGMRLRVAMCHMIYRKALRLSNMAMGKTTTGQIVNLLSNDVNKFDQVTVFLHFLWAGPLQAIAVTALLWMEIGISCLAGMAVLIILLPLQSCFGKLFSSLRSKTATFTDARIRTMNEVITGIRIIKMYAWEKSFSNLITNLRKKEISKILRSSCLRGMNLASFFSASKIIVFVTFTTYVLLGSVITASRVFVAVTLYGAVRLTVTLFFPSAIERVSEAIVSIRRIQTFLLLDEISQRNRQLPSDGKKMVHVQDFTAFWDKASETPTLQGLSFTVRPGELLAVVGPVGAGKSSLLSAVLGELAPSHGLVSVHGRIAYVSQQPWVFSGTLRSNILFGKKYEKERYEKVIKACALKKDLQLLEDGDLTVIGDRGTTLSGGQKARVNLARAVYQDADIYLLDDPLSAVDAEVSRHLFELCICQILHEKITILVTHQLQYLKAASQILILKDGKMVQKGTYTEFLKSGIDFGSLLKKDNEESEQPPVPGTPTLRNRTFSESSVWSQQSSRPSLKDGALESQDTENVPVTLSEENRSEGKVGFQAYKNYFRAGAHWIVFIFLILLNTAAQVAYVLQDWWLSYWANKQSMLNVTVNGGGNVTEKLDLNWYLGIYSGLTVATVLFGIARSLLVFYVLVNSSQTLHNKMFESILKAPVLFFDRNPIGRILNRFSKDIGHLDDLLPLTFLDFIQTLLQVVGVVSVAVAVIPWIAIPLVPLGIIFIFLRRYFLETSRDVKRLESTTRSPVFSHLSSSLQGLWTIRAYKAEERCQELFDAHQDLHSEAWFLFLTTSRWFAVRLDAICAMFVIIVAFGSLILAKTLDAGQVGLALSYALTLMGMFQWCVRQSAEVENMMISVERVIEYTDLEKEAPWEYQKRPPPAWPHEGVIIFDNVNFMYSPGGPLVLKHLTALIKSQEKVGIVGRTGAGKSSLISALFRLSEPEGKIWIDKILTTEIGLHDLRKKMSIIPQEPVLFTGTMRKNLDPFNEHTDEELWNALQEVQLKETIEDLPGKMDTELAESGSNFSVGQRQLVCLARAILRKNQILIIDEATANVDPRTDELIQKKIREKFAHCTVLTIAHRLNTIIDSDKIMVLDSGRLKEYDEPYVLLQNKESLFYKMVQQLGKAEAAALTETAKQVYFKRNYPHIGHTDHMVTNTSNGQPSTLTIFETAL

[7] = target: OAT3 (Homo sapiens, UniProt Q8TCC7); test: Transporter inhibition; type: in vitro ADME; settings: clinically relevant concentrations
Chain of OAT3 (Q8TCC7 whole entry): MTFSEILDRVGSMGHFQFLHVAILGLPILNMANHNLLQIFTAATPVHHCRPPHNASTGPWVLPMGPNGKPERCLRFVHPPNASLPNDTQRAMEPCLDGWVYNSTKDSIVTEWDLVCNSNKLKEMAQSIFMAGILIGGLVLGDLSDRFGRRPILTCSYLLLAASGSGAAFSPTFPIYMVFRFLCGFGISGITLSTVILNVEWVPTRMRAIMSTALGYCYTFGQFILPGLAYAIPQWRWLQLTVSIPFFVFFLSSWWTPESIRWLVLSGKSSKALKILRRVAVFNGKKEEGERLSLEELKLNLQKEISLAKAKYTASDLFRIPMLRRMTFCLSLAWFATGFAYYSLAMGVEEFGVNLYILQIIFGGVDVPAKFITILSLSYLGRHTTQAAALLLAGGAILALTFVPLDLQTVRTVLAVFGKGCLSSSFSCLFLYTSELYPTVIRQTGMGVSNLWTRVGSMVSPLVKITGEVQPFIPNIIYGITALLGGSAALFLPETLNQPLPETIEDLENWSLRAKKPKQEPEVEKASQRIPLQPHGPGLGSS

[8] = target: CYP2B6 (Homo sapiens, UniProt P20813); test: In vitro CYP inhibition; type: in vitro ADME; settings: clinically relevant concentrations
Chain of CYP2B6 (P20813 whole entry): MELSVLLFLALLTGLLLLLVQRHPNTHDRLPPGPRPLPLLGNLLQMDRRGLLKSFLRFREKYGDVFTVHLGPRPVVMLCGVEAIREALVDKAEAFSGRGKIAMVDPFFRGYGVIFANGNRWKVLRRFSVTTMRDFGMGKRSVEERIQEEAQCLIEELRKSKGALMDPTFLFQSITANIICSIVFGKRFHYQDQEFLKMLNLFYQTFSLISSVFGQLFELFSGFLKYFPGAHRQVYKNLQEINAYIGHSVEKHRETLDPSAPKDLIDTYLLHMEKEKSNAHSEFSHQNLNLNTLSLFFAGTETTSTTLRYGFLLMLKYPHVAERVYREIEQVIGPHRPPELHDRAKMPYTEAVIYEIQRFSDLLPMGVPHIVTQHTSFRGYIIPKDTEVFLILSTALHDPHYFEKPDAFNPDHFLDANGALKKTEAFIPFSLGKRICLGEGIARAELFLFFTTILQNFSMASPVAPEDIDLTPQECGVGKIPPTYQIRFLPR

[9] = Atogepant-itraconazole interaction study: safety and tolerability; type: in vivo, human
From the text: The primary objective of this study was to assess the effects of multiple dose itraconazole on the pharmacokinetics of a single dose of atogepant. The primary endpoints were PK parameters of atogepant derived from plasma concentrations. The secondary objectives of the study were to assess the safety and tolerability of atogepant and itraconazole given alone and in combination, and to establish the correlation between concentrations of atogepant in dried blood sample (DBS) (obtained via finger stick) and plasma. The secondary endpoints included AEs, clinical laboratory parameters, vital signs, ECG, and physical examination, and correlation of concentrations of atogepant in DBS and plasma. Subjects who satisfied the inclusion and exclusion criteria were assigned to a single fixed-treatment sequence in which they received Treatment A followed by Treatment B; there was a 7-day washout period between treatments. • Treatment A: Single oral 60 mg dose of atogepant (tablet) under fasted conditions on Day 1 • Treatment B • Days 8-14: Itraconazole 200 mg (tablet) orally once daily under fed conditions. • Day 15: Itraconazole 200 mg coadministered with atogepant 60 mg (tablet) under fasted conditions. • Days 16 to 17: Itraconazole 200 mg (tablet) once daily under fed conditions.

[10] = Treatment A: atogepant 60 mg alone
[11] = Treatment B1 (single-dose rifampin) / Treatment A
[12] = Treatment B2 (multi-dose rifampin) / Treatment A
[13] = Treatment B2: atogepant 60 mg + multiple-dose rifampin 600 mg
[14] = atogepant 60 mg + multiple-dose rifampin 600 mg (strong CYP3A4 inducer) vs atogepant alone
[15] = atogepant 60 mg + single-dose rifampin 600 mg (OATP inhibitor) vs atogepant alone
[16] = both sexes, human, plasma, oral, 60 mg, Treatment A: atogepant 60 mg alone
[17] = both sexes, human, plasma, oral, Treatment B2: atogepant 60 mg + multiple-dose rifampin 600 mg
[18] = Studies 1 and 2, atogepant 10 mg (N = 314)
[19] = Studies 1 and 2, atogepant 30 mg (N = 411)
[20] = Studies 1 and 2, atogepant 60 mg (N = 417)

For `C[C@@H]1[C@H](c2c(F)ccc(F)c2F)C[C@H](NC(=O)c2cnc3c(c2)C[C@@]2(C3)C(=O)Nc3ncccc32)C(=O)N1CC(F)(F)F` [atogepant, (3′S)-N-[(3S,5S,6R)-6-methyl-2-oxo-1-(2,2,2-trifluoroethyl)-5-(2,3,6-trifluorophenyl)piperidin-3-yl]-2′-oxo-1′,2′,5,7-tetrahydrospiro[cyclopenta[b]pyridine-6,3′-pyrrolo[2,3-b]pyridine]-3-carboxamide], the “inhibition of NTCP” value [1] was “not an inhibitor”, the “Deaths, %” value ([2]; cohort 1, atogepant + topiramate (n = 26)) was “(0) %” and the “Deaths, %” value ([2]; cohort 1, atogepant alone (n = 28)) was “(0) %”. The “TEAEs leading to discontinuation, %” value ([2]; human, in vivo) was “(17.9)^a %”, the “TESAEs, %” value ([2]; human, in vivo) was “(0) %” and the “Treatment-related TEAEs, %” value ([2]; human, in vivo) was “(39.3) %”. For the same compound, the “Treatment-related TESAEs, %” value ([2]; human, in vivo) was “(0) %”, the constipation reported ([2]; human, in vivo) was 3 participants and the nausea reported ([2]; human, in vivo) was 6 participants. The “TEAEs, %” value ([2]; human, in vivo, 7 days) was “(71.4) %”, the “participants with TEAEs considered related to study intervention” value ([3]; overall) was 15% and the participants with arthralgia ([3]; overall) was 10.0%. For the same compound, the “participants with back pain” value ([3]; overall) was 10.0%, the “participants with treatment emergent AEs (TEAEs)” value ([3]; overall) was 35.0% and the safety and tolerability ([3]; single doses of 60-mg IR formulation) was “safe and well-tolerated”. For the same compound, the CL/F [4, 10] was 22.8 L/h, the λz [4, 10] was 0.0778 h⁻¹ and the “AUC0-24 Ratio of Geometric Means Test/Ref” value [4, 11] was 284.84%. For the same compound, the “Cmax Ratio of Geometric Means Test/Ref” value [4, 11] was 222.65%, the “AUC0-t Ratio of Geometric Means Test/Ref” value [4, 12] was 40.46% and the “AUC0-∞ Ratio of Geometric Means Test/Ref” value [4, 12] was 38.85%. The “Cmax Ratio of Geometric Means Test/Ref” value [4, 12] was 70.06%, the CL/F [4, 13] was 58.3 L/h and 58.3^b L/h and the λz [4, 13] was 0.325^b 1/h. For the same compound, the “reduction of atogepant AUC0-t (AUC)” value [4, 14] was 60%, the “reduction of atogepant Cmax” value [4, 14] was 30% and the “reduction of atogepant AUC0-∞” value ([4]; atogepant 60 mg + multiple-dose rifampin 600 mg vs atogepant alone) was 61%. The “increase in atogepant AUC0-24” value [4, 15] was 2.85 fold, the “increase in atogepant Cmax” value [4, 15] was 2.23 fold and the half-life [4, 16] was 11.4 h. It also gave an AUC(0-t) ([4]; both sexes, human, plasma, oral, 60 mg, Treatment A: atogepant 60 mg alone, read-out: AUC0-24) of 2870 ng·h/mL, an AUC(0-t) ([4]; both sexes, human, plasma, oral, 60 mg, Treatment A: atogepant 60 mg alone, read-out: AUC0-24 Geometric LSM, Reference) of 2680 ng·h/mL and an AUC(0-t) ([4]; both sexes, human, plasma, oral, 60 mg, Treatment A: atogepant 60 mg alone, read-out: AUC0-t) of 2960 ng·h/mL. It also gave an AUC(0-t) ([4]; both sexes, human, plasma, oral, 60 mg, Treatment A: atogepant 60 mg alone, read-out: AUC0-t Geometric LSM, Reference) of 2770 ng·h/mL, an AUC(0-inf) ([4]; both sexes, human, plasma, oral, 60 mg, Treatment A: atogepant 60 mg alone, read-out: AUC0-∞) of 3000 ng·h/mL and an AUC(0-inf) ([4]; both sexes, human, plasma, oral, 60 mg, Treatment A: atogepant 60 mg alone, read-out: AUC0-∞ Geometric LSM, Reference) of 2810 ng·h/mL. It also gave a Cmax ([4]; both sexes, human, plasma, oral, 60 mg, Treatment A: atogepant 60 mg alone, read-out: Cmax) of 711 ng/mL, a Cmax ([4]; both sexes, human, plasma, oral, 60 mg, Treatment A: atogepant 60 mg alone, read-out: Cmax Geometric LSM, Reference) of 649 ng/mL and a Tmax [4, 16] of 1.5 h. It also gave an AUC(0-t) ([4]; both sexes, human, plasma, oral, Treatment B1: atogepant 60 mg + single-dose rifampin 600 mg, read-out: AUC0-24) of 8130 ng·h/mL, an AUC(0-t) ([4]; both sexes, human, plasma, oral, Treatment B1: atogepant 60 mg + single-dose rifampin 600 mg, read-out: AUC0-24 Geometric LSM, Test) of 7630 ng·h/mL and a Cmax ([4]; both sexes, human, plasma, oral, Treatment B1: atogepant 60 mg + single-dose rifampin 600 mg, read-out: Cmax) of 1550 ng/mL. The Cmax ([4]; both sexes, human, plasma, oral, Treatment B1: atogepant 60 mg + single-dose rifampin 600 mg, read-out: Cmax Geometric LSM, Test) was 1440 ng/mL, the Tmax ([4]; both sexes, human, plasma, oral, Treatment B1: atogepant 60 mg + single-dose rifampin 600 mg) was 2 h and the half-life [4, 17] was 2.39 h. For the same compound, the AUC(0-t) ([4]; both sexes, human, plasma, oral, Treatment B2: atogepant 60 mg + multiple-dose rifampin 600 mg, read-out: AUC0-t) was 1180 ng·h/mL, the AUC(0-t) ([4]; both sexes, human, plasma, oral, Treatment B2: atogepant 60 mg + multiple-dose rifampin 600 mg, read-out: AUC0-t Geometric LSM, Test) was 1120 ng·h/mL and the AUC(0-inf) ([4]; both sexes, human, plasma, oral, Treatment B2: atogepant 60 mg + multiple-dose rifampin 600 mg, read-out: AUC0-∞) was 1130 ng·h/mL. For the same compound, the AUC(0-inf) ([4]; both sexes, human, plasma, oral, Treatment B2: atogepant 60 mg + multiple-dose rifampin 600 mg, read-out: AUC0-∞ Geometric LSM, Test) was 1090 ng·h/mL, the Cmax ([4]; both sexes, human, plasma, oral, Treatment B2: atogepant 60 mg + multiple-dose rifampin 600 mg, read-out: Cmax) was 487 ng/mL and the Cmax ([4]; both sexes, human, plasma, oral, Treatment B2: atogepant 60 mg + multiple-dose rifampin 600 mg, read-out: Cmax Geometric LSM, Test) was 454 ng/mL. For the same compound, the Tmax [4, 17] was 1.5 h, the Vd/F [4, 17] was 197 L and the reduction in mean apparent half-life ([4]; both sexes, human, plasma, oral, atogepant + multiple dose rifampin vs atogepant alone, read-out: reduction of mean apparent T1/2 (converted)) was about 9 h. The Vd/F ([4]; both sexes, human, plasma, oral, Treatment A: atogepant 60 mg alone) was 390 L, the “discontinuation due to constipation” value ([5]; Studies 1 and 2) was 0.5% and the “discontinuation due to fatigue/somnolence” value ([5]; Studies 1 and 2) was 0.5%. The “discontinuation due to nausea” value ([5]; Studies 1 and 2) was 0.5%, the “proportion of patients with a weight decrease of at least 7% at any point” value ([5]; Studies 1 and 2, atogepant 10 mg) was 3.8% and the “Constipation, incidence” value [5, 18] was 6%. The “Decreased Appetite, incidence” value [5, 18] was 2%, the “Fatigue/Somnolence, incidence” value [5, 18] was 4% and the “Nausea, incidence” value [5, 18] was 5%. For the same compound, the “proportion of patients with a weight decrease of at least 7% at any point” value ([5]; Studies 1 and 2, atogepant 30 mg) was 3.2%, the “Constipation, incidence” value [5, 19] was 6% and the “Decreased Appetite, incidence” value [5, 19] was 1%. The “Fatigue/Somnolence, incidence” value [5, 19] was 4%, the “Nausea, incidence” value [5, 19] was 6% and the “proportion of patients with a weight decrease of at least 7% at any point” value ([5]; Studies 1 and 2, atogepant 60 mg) was 4.9%. For the same compound, the “Constipation, incidence” value [5, 20] was 6%, the “Decreased Appetite, incidence” value [5, 20] was 2% and the “Fatigue/Somnolence, incidence” value [5, 20] was 6%. The “Nausea, incidence” value [5, 20] was 9%, the “severe liver injury or jaundice” value ([5]; Study 1 and Study 2) was “no cases” and the “rate of transaminase elevations over 3 times the upper limit of normal” value ([5]; Study 1 and Study 2, patients treated with atogepant) was 1.0%. For the same compound, the “time to resolution of transaminase elevations after discontinuation” value ([5]; cases temporally associated with atogepant treatment, asymptomatic) was at most 8 weeks, the “inhibition of MRP4” value [6] was “not an inhibitor” and the “inhibition of OAT3” value [7] was “not an inhibitor”. The “inhibition of CYP2B6” value [8] was “not an inhibitor”, the “subjects experiencing dizziness (TEAE)” value ([9]; atogepant alone) was 2 subjects and the tolerability ([9]; each treatment (atogepant alone, itraconazole, combination)) was “well-tolerated”.
